In ChEMBL document CHEMBL5055626 (J Med Chem, 2021):
pIC50: −log10 of the molar value. The source made the active and inactive calls. No cut-off for these calls is given here. Where a SMILES comes first, the peptide text is derived from it. Bridges are numbered along the chain shown (N, C = ends).

Experiments:
[1] = target: Neuronal acetylcholine receptor subunit alpha-7 (Rattus norvegicus, UniProt Q05941); test: Antagonist activity at rat alpha7 nAChR expressed in xenopus oocytes assessed as inhibition of Ach- induced response at -70 mV holding potential preincubated for 5 mins followed by Ach stimulation by voltage-clamp based electrophysiological method; format: cell-based, Oocyte
[2] = target: Neuronal acetylcholine receptor; alpha4/beta2 (Rattus norvegicus, UniProt P09483+P12390); test: Antagonist activity at rat alpha4beta2 nAChR expressed in xenopus oocytes assessed as inhibition of Ach- induced response at -70 mV holding potential preincubated for 5 mins followed by Ach stimulation by voltage-clamp based electrophysiological method; format: cell-based, Oocyte
[3] = target: Neuronal acetylcholine receptor; alpha4/beta4 (Rattus norvegicus) (UniProt P09483+P12392); test: Antagonist activity at rat alpha4beta4 nAChR expressed in xenopus oocytes assessed as inhibition of Ach- induced response at 10 uM at -70 mV holding potential preincubated for 5 mins followed by Ach stimulation by voltage-clamp based electrophysiological method; format: cell-based; settings: Oocyte
[4] = target: Neuronal acetylcholine receptor; alpha3/beta4 (Rattus norvegicus, UniProt P04757+P12392); test: Antagonist activity at rat alpha3beta4 nAChR expressed in xenopus oocytes assessed as inhibition of Ach- induced response at -70 mV holding potential preincubated for 5 mins followed by Ach stimulation by voltage-clamp based electrophysiological method; format: cell-based, Oocyte
[5] = target: Nicotinic acetylcholine receptor alpha9/alpha10 (Rattus norvegicus, UniProt P43144+Q9JLB5); test: Antagonist activity at rat alpha9alpha10 nAChR expressed in xenopus oocytes assessed as inhibition of Ach- induced response at -70 mV holding potential preincubated for 5 mins followed by Ach stimulation by voltage-clamp based electrophysiological method; format: cell-based, Oocyte
[6] = target: T1, Nicotinic acetylcholine receptor alpha6/alpha3/beta4 (Homo sapiens, UniProt P30926+P32297+Q15825); test: Antagonist activity at rat alpha6/alpha3beta4 nAChR expressed in xenopus oocytes assessed as inhibition of Ach- induced response at -70 mV holding potential preincubated for 5 mins followed by Ach stimulation by voltage-clamp based electrophysiological method; format: cell-based, Oocyte
[7] = target: Neuronal acetylcholine receptor; alpha4/beta2 (Rattus norvegicus) (UniProt P09483+P12390); test: Antagonist activity at rat alpha4beta2 nAChR expressed in xenopus oocytes assessed as inhibition of Ach- induced response at 10 uM at -70 mV holding potential preincubated for 5 mins followed by Ach stimulation by voltage-clamp based electrophysiological method; format: cell-based; settings: Oocyte
[8] = target: Neuronal acetylcholine receptor; alpha2/beta2 (Rattus norvegicus) (UniProt P12389+P12390); test: Antagonist activity at rat alpha2beta2 nAChR expressed in xenopus oocytes assessed as inhibition of Ach- induced response at 10 uM at -70 mV holding potential preincubated for 5 mins followed by Ach stimulation by voltage-clamp based electrophysiological method; format: cell-based; settings: Oocyte
[9] = target: Neuronal acetylcholine receptor; alpha2/beta4 (Rattus norvegicus, UniProt P12389+P12392); test: Antagonist activity at rat alpha2beta4 nAChR expressed in xenopus oocytes assessed as inhibition of Ach- induced response at -70 mV holding potential preincubated for 5 mins followed by Ach stimulation by voltage-clamp based electrophysiological method; format: cell-based, Oocyte
[10] = target: Neuronal acetylcholine receptor; alpha2/beta4 (Rattus norvegicus) (UniProt P12389+P12392); test: Antagonist activity at rat alpha2beta4 nAChR expressed in xenopus oocytes assessed as inhibition of Ach- induced response at 10 uM at -70 mV holding potential preincubated for 5 mins followed by Ach stimulation by voltage-clamp based electrophysiological method; format: cell-based; settings: Oocyte
[11] = target: Neuronal acetylcholine receptor; alpha4/beta4 (Rattus norvegicus, UniProt P09483+P12392); test: Antagonist activity at rat alpha4beta4 nAChR expressed in xenopus oocytes assessed as inhibition of Ach- induced response at -70 mV holding potential preincubated for 5 mins followed by Ach stimulation by voltage-clamp based electrophysiological method; format: cell-based, Oocyte
[12] = target: Neuronal acetylcholine receptor; alpha2/beta2 (Rattus norvegicus, UniProt P12389+P12390); test: Antagonist activity at rat alpha2beta2 nAChR expressed in xenopus oocytes assessed as inhibition of Ach- induced response at -70 mV holding potential preincubated for 5 mins followed by Ach stimulation by voltage-clamp based electrophysiological method; format: cell-based, Oocyte
[13] = Antagonist activity at rat alpha6/ alpha3beta2beta3 nAChR expressed in xenopus oocytes assessed as inhibition of Ach- induced response at -70 mV holding potential preincubated for 5 mins followed by Ach stimulation by voltage-clamp based electrophysiological method; format: cell-based; settings: Oocyte
[14] = target: Neuronal acetylcholine receptor; alpha3/beta4 (Rattus norvegicus) (UniProt P04757+P12392); test: Antagonist activity at rat alpha3beta4 nAChR expressed in xenopus oocytes assessed as inhibition of Ach- induced response at 10 uM at -70 mV holding potential preincubated for 5 mins followed by Ach stimulation by voltage-clamp based electrophysiological method; format: cell-based; settings: Oocyte
[15] = target: Neuronal acetylcholine receptor; alpha3/beta2 (Rattus norvegicus) (UniProt P04757+P12390); test: Antagonist activity at rat alpha3beta2 nAChR expressed in xenopus oocytes assessed as inhibition of Ach- induced response at 10^-5 M at -70 mV holding potential preincubated for 5 mins followed by Ach stimulation by voltage-clamp based electrophysiological method relative to control; format: cell-based; parameters: scale not given: the % may be the effect or the level left; settings: Oocyte, filed as antagonist, dose 1.0 10^-5M
[16] = target: Nicotinic acetylcholine receptor alpha9/alpha10 (Rattus norvegicus) (UniProt P43144+Q9JLB5); test: Antagonist activity at rat alpha9alpha10 nAChR expressed in xenopus oocytes assessed as inhibition of Ach- induced response at 10 uM at -70 mV holding potential preincubated for 5 mins followed by Ach stimulation by voltage-clamp based electrophysiological method; format: cell-based; settings: Oocyte
[17] = target: Neuronal acetylcholine receptor; alpha3/beta2 (Rattus norvegicus, UniProt P04757+P12390); test: Antagonist activity at rat alpha3beta2 nAChR expressed in xenopus oocytes assessed as inhibition of Ach- induced response at -70 mV holding potential preincubated for 5 mins followed by Ach stimulation by voltage-clamp based electrophysiological method; format: cell-based, Oocyte
[18] = target: T1, Nicotinic acetylcholine receptor alpha6/alpha3/beta4; test: Antagonist activity at rat alpha6/alpha3beta4 nAChR expressed in xenopus oocytes assessed as inhibition of Ach- induced response at 10^-5 M at -70 mV holding potential preincubated for 5 mins followed by Ach stimulation by voltage-clamp based electrophysiological method relative to control; format: cell-based; parameters: scale not given: the % may be the effect or the level left; settings: Oocyte, filed as antagonist, dose 1.0 10^-5M

Chain of Neuronal acetylcholine receptor subunit alpha-7 (Q05941 whole entry): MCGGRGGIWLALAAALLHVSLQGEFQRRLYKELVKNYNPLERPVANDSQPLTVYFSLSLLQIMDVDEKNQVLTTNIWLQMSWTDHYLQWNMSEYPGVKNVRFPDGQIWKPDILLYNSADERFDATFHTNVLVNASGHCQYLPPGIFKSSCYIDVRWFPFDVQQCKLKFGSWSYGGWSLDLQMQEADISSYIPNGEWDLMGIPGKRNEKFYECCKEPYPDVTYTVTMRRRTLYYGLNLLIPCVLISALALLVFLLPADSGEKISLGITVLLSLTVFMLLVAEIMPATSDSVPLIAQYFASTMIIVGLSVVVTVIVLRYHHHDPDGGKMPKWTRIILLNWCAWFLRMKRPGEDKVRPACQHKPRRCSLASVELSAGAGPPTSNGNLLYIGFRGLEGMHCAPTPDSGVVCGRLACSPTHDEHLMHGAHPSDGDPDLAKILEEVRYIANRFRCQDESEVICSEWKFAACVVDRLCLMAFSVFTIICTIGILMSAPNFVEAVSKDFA
Chain of Neuronal acetylcholine receptor; alpha3/beta2 (P04757 whole entry): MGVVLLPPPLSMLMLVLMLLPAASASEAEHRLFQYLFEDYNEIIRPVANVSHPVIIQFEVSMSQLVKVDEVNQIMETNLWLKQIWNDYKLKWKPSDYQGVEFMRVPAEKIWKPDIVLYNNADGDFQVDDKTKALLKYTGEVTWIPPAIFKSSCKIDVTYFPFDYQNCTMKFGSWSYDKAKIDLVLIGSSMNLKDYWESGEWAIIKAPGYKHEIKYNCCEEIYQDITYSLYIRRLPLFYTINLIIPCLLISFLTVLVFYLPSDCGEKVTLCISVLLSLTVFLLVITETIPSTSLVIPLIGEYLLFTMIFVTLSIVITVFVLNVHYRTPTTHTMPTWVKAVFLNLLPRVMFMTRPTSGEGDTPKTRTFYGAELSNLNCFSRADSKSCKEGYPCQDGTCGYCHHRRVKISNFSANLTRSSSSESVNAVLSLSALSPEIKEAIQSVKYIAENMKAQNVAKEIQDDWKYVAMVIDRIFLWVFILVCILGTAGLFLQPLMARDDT
Chain of Neuronal acetylcholine receptor; alpha3/beta2 (P12390 whole entry): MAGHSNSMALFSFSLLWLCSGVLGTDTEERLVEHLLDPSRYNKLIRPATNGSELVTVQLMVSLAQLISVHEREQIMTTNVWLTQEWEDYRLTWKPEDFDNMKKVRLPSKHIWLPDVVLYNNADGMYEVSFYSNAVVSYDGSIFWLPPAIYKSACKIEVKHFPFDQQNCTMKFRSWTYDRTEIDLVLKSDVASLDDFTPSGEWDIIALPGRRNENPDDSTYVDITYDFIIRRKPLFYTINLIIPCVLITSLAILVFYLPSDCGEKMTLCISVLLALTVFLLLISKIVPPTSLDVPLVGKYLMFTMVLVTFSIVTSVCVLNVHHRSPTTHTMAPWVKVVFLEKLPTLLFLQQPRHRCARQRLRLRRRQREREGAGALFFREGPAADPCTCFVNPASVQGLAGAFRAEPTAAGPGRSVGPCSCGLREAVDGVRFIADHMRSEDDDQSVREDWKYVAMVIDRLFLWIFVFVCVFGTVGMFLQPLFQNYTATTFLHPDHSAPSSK
Chain of Neuronal acetylcholine receptor; alpha3/beta4 (P04757 whole entry): as the sequence (P04757 whole entry) above
Chain of Neuronal acetylcholine receptor; alpha3/beta4 (P12392 whole entry): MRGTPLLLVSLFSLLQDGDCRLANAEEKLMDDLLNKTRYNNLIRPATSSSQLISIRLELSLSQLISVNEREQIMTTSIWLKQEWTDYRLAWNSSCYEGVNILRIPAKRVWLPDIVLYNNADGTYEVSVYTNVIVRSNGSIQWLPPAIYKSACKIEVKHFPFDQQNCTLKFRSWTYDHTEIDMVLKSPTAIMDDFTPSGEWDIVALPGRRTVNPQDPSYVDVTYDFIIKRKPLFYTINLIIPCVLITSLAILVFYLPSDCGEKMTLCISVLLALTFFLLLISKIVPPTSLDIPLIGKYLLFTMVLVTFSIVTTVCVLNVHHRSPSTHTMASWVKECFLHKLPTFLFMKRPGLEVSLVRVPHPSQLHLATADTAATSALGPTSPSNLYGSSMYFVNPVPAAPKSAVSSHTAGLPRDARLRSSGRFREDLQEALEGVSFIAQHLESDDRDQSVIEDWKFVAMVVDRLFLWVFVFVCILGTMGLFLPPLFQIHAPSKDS
Chain of Nicotinic acetylcholine receptor alpha9/alpha10 (P43144 whole entry): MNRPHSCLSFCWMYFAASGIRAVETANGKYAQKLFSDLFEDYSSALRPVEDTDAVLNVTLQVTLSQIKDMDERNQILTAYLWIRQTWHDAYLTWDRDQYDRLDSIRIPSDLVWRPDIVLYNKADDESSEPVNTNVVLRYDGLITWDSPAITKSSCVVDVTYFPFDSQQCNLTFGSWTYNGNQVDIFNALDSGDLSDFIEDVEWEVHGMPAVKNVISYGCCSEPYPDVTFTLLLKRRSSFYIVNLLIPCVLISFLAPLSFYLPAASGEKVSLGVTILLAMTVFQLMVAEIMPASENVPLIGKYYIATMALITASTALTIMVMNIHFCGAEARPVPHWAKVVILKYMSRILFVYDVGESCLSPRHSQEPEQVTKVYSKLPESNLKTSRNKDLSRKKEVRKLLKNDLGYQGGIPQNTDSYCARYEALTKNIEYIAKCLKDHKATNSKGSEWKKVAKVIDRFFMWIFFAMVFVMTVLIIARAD
Chain of Nicotinic acetylcholine receptor alpha9/alpha10 (Q9JLB5 whole entry): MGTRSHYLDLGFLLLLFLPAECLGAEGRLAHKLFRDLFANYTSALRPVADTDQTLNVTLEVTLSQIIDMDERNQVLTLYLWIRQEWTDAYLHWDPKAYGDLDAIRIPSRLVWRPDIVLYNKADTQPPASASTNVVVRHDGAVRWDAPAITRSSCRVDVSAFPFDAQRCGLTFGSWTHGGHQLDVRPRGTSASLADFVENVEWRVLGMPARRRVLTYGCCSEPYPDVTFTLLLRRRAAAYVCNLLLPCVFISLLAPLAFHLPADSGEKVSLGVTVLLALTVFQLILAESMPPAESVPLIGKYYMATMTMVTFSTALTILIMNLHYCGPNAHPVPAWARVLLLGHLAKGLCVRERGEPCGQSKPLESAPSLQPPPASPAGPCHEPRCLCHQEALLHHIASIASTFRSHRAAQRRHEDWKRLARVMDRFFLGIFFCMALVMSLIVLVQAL
Chain of Neuronal acetylcholine receptor; alpha2/beta2 (P12389 whole entry): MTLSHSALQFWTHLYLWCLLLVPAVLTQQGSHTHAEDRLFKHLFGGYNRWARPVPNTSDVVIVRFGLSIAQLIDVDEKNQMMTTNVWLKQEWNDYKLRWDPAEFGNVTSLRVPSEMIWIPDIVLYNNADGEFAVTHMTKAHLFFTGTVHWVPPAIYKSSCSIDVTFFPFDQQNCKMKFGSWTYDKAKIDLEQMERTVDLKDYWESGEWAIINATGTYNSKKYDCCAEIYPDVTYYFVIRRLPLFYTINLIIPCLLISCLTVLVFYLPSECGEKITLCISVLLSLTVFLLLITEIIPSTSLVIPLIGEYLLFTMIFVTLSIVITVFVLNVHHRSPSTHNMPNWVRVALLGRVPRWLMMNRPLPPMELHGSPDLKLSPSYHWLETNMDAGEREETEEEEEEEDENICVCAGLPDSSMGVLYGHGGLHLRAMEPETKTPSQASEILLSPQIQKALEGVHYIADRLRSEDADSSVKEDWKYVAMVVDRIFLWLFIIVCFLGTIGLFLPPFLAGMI
Chain of Neuronal acetylcholine receptor; alpha2/beta2 (P12390 whole entry): as the sequence (P12390 whole entry) above
Chain of Neuronal acetylcholine receptor; alpha2/beta4 (P12389 whole entry): as the sequence (P12389 whole entry) above
Chain of Neuronal acetylcholine receptor; alpha2/beta4 (P12392 whole entry): as the sequence (P12392 whole entry) above
Chain of Neuronal acetylcholine receptor; alpha4/beta2 (P09483 whole entry): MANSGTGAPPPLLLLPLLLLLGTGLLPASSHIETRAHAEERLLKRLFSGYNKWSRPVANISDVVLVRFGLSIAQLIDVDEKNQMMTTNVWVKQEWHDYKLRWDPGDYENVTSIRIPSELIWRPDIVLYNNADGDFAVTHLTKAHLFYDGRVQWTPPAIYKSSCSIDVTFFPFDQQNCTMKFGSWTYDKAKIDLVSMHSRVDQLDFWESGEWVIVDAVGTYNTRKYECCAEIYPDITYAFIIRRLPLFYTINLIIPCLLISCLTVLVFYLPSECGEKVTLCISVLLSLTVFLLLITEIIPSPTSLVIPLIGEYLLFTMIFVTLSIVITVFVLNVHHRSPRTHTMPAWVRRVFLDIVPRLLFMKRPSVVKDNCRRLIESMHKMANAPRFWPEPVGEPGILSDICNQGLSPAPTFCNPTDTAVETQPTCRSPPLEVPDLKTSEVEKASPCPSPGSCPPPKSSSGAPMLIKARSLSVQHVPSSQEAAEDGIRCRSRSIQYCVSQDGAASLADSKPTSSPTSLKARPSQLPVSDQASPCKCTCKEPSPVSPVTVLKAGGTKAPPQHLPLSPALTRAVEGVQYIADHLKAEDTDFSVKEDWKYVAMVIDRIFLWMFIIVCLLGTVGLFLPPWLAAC
Chain of Neuronal acetylcholine receptor; alpha4/beta2 (P12390 whole entry): as the sequence (P12390 whole entry) above
Chain of Neuronal acetylcholine receptor; alpha4/beta4 (P09483 whole entry): as the sequence (P09483 whole entry) above
Chain of Neuronal acetylcholine receptor; alpha4/beta4 (P12392 whole entry): as the sequence (P12392 whole entry) above

Structure (SMILES)	pIC50 [1]	pIC50 [2]	inhibition [3]	pIC50 [4]	pIC50 [5]	pIC50 [6]	inhibition [7]	inhibition [8]	pIC50 [9]	inhibition [10]	pIC50 [11]	pIC50 [12]	pIC50 [13]	inhibition [14]	Activity [15] [%]	inhibition [16]	pIC50 [17]	Activity [18] [%]
C[C@@H]1NC(=O)[C@@H]2CSSC[C@H](NC(=O)[C@@H](N)CCC(N)=O)C(=O)N[C@@H](CSSC[C@@H](C(=O)N[C@@H](CCCNC(=N)N)C(=O)O)NC(=O)[C@H](Cc3cnc[nH]3)NC(=O)[C@H](CCC(=O)O)NC(=O)[C@H](Cc3cnc[nH]3)NC1=O)C(=O)N[C@@H](CO)C(=O)N[C@@H](CC(N)=O)C(=O)N1CCC[C@H]1C(=O)N1CCC[C@H]1C(=O)N2 (H-QCCSNPPCAHEHCR-OH; disulfide 2-8, 3-13)	5.75	< 5.00	inactive	< 5.00	< 5.00	< 5.00	inactive	inactive	< 5.00	inactive	< 5.00	< 5.00	5.28	inactive	< 50	inactive	< 5.00	–
C[C@@H]1NC(=O)[C@@H]2CSSC[C@H](N)C(=O)N[C@@H](CSSC[C@@H](C(N)=O)NC(=O)[C@H](Cc3cnc[nH]3)NC(=O)[C@H](CCC(=O)O)NC(=O)[C@H](Cc3cnc[nH]3)NC1=O)C(=O)N[C@@H](CO)C(=O)N[C@@H](CC(N)=O)C(=O)N1CCC[C@H]1C(=O)N1CCC[C@H]1C(=O)N2 (H-CCSNPPCAHEHC-NH2; disulfide 1-7, 2-12)	5.74	< 5.00	inactive	< 5.00	< 5.00	< 5.00	inactive	inactive	< 5.00	inactive	< 5.00	< 5.00	5.48	inactive	–	inactive	5.33	< 50
